Laboratory results reported in paper PMC5467147, “Identification of a Peptide for Systemic Brain Delivery of a Morpholino Oligonucleotide in Mouse Models of Spinal Muscular Atrophy” (Nucleic Acid Therapeutics, 2017).

Key:
SMN2 pre-mRNA exon 7 = experiment: In vivo screening of P-PMOs in neonatal SMA mice at PND4, full-length SMN2 by RT-qPCR; design: species or system mouse; conditions: facial vein at PND4, 2.66 nmol P-PMO, harvest 7 days after treatment, normalized to total SMN2, relative to saline, mean ± SEM, n = 4–6
SMNΔ7 mice = conditions: newborn SMNΔ7 mice, single ICV injections (27, 54, and 81 μg) at P0; cited from earlier work
Description: PMO is used in several clinical and preclinical studies due to its high stability and low toxicity. The PMO sequence PMO20, also known as HSMN2Ex7D(−10,-29), has been previously studied by Porensky et al.. Single ICV injections (27, 54, and 81 μg) of this PMO in newborn SMNΔ7 mice at P0 increased the levels of both full-length SMN2 RNA transcript in the brain and spinal cord as well as SMN protein and yielded an increased survival of >100 days. In a similar study, Zhou et al. used the same PMO sequence [PMO20 (−10, −29)] as well as PMO18 (−10, −27) and PMO25 (−10, −34 ...

[1] = system: severe SMA (Smn1tm1Hung/tm1Hung;SMN2tg/o) mice; experiment: Survival and phenotype of severe newborn SMA mice treated at PND0 and PND2; format: in vivo, mouse; conditions: severe SMA pups
Description: Experiments were carried out in the Biomedical Sciences Unit, University of Oxford, according to procedures authorized by the UK Home Office and approved by the Unit Approval Board. Experiments were carried out using the SMA-like mouse strain FVB.Cg-Smn1^tm1HungTg(SMN2)2Hung/J. For the purposes of welfare, the peptide screen was carried out on hemizygotic (Smn1^tm1Hung/wt;SMN2^tg/tg) pups generated as previously described. Each litter (n = 4–6 per P-PMO) at PND4 was injected with P-PMO (2.6 nmol) in 10–15 μL of 0.9% saline. The control litter was injected with 0.9% saline. Neonatal mice were euthanized 7 days postinjection and brains, kidneys, and quadriceps were extracted and frozen on dry ice before RNA extraction. The Br-ApoE (K→A)-PMO and Br-ApoE (K→A)-scrambled PMO were further analyzed in homozygotic pups (Smn1^tm1Hung/tm1Hung;SMN2^tg/o) generated as previously described. Pups used for phenotype assessment were injected with 10 μg/g (1 nmol) Br-ApoE (K→A)-PMO, Br-ApoE (K→A)-scrambled PMO, SMA-PMO through the facial vein at PND0 and PND2. Treated animals were weighed daily and observed for survival longevity. A humane endpoint was determined by mobility and weight. Animals who had reached their humane endpoint were euthanized by rising CO2.
Pups were also tested from PND2 to PND12 for hindlimb strength and […]. Hindlimb strength was scored using a hindlimb suspension (HLS) test developed by PsychoGenics, Inc. and described in the standardized protocols and procedures for preclinical studies by TREAT-NMD. The HLS score relates to the position of the legs and tail of pups suspended by their hindlimbs onto the lip of a 50-cc test tube. A score of 0 − 4 is given with the 0 relating to the weakest phenotype (feet clasped and tail down) and a 4 given to the strongest phenotype (legs spread and tail up). For the purposes of reproducibility, factors such as leg pulls and time were left out of the analysis. Righting reflex was measured by placing pups on their back and timing their ability to right themselves onto all four paws.

patients = conditions: human, in vivo; cited from earlier work

| Substance | full-length SMN2 transcript, Brain (SMN2 pre-mRNA exon 7) | full-length SMN2 transcript, Kidney (SMN2 pre-mRNA exon 7) | full-length SMN2 transcript, Quad (quadriceps) (SMN2 pre-mRNA exon 7) | survival (SMNΔ7 mice) [days] | age range (survival) ([1]; 10 μg/g facial vein at PND0 and PND2, days by b51, saline 6–13) | median survival ([1]; two doses of 10 mg/kg (10 μg/g) facial vein at PND0 and PND2, saline 10.5 days) [days] | hindlimb strength (hindlimb suspension tube test) ([1]; two doses of 10 mg/kg at PND0 and PND2, PND2 to PND12) | patients who developed side effects such as headache, back pain, and postlumbar puncture syndromes (patients) |
| --- | --- | --- | --- | --- | --- | --- | --- | --- |
| AngioPep-2 | 1 ± 0.03 | 1.07 ± 0.07 | 1.24 ± 0.1 | – | – | – | – | – |
| SMA-PMO: unconjugated 20-mer PMO for SMN2 exon-7 inclusion, 5′-ATTCACTTTCATAATGCTGG-3′ (all phosphorodiamidate morpholino (PMO)) | 1 ± 0.02 | 1 ± 0.04 | 1.25 ± 0.05 | > 100 | 11–49 | 29 | gradual decline in muscle strength | – |
| Nusinersen | – | – | – | – | – | – | – | 32 % of patients |
